Results from patent publication US12208076B2 (Southern Methodist University, priority 2020, dated 2025).

Experiment: Thermogravimetric analysis (TGA), thermal stability
Type: physicochemical
Details: 10° C./min, nitrogen
Protocol: TGA. […] Each sample was placed in an alumina crucible and heated from 25 to 1000° C. at a heating rate of 10° C./min under a constant flow of nitrogen. […] The different thermal decomposition pattern of a-CAA further supports the hypothesis that the milling product is a co-amorphous formulation and not a physical mixture of amorphous starting materials. […] The similarity between the IR spectra of both formulations points to similarities in their local structures and is indicative of a 1:1 stoichiometry. This stoichiometry was confirmed by thermal analyses. […] The similar TGA profiles of dried c-CAA and a-CAA, shown in FIGS. 3A and 3B, further confirm that the co-amorphous and the co-crystalline formulation have the same stoichiometry and similar local structures.

SMILES	decomposition temperature (stable up to) [°C]
CN(CC(=O)O)C(=N)N [creatine anhydrate]	220
O=C(O)CC(O)(CC(=O)O)C(=O)O [citric acid anhydrate]	164
